One experiment deals with CDK1/cyclin B (Homo sapiens (Human), UniProt P06493). Description: CDK1/cyclin B enzymatic activity assay (IMAP-FP). It counts as biochemical. The following applies: 100 nM Tamra Histone-H1 peptide, 20 μM ATP, 120 min at room temperature, read-out: Biochemical CDK1 enzyme IC50. The source says: CDK1/Cyclin B Enzymatic Activity Assay
A 384-well microtiter IMAP-FP™ (Molecular Devices Trade Mark Technology) endpoint assay was used for CDK1/cyclin B kinase activity measurements. The same assay was used for IC50 determination of small molecule inhibitors.

For a further experiment, the target named is CDK4/cyclin D1 (Homo sapiens (Human), UniProt P11802). The experiment can be described thus: CDK4/cyclin D1 enzymatic activity assay (TR-FRET, phosphorylation of pRb at Ser780). It counts as biochemical. The following applies: 0.3 nM CDK4/cyclin D1, 150 nM biotin-pRb (773-924), 3 μM ATP, 60 min at 22° C.; read-out: Biochemical CDK4 enzyme IC50. The procedure:
CDK4/Cyclin D1 Enzymatic Activity Assay
An assay for monitoring CDK4/cyclin D1-catalyzed phosphorylation of pRb at the Ser780 site was performed using TR-FRET in a 384-well format, and was used for IC50 determination and kinetic analysis. […] 3 μM ATP was added last to initiate the reaction. The reaction was quenched with 10 μL of 240 mM EDTA-Na (pH 8.0) after 60 min incubation at 22° C.
Human CDK4/cyclin D1 was expressed in Sf21 cells via baculovirus infection.
(TR-FRET usually uses a lanthanide donor and a delayed reading to cut background.)

Experiment [1] relates to phosphorylation of pRb at the Ser780 site in JeKo-1 mantle cell lymphoma cells. Description: CDK4 cellular assay: ELISA of pRb phosphorylation at Ser780 in JeKo-1 cells. It counts as cell-based. From the text:
Cell-based assay measuring phosphorylation levels of pRb at the Ser780 site using an enzyme-linked immunosorbent assay (ELISA) method (Table 6). JeKo-1, a mantle-cell lymphoma cell line, was selected for use in this assay due to its known translocation and subsequent overexpression of cyclin D1. [Ref: Amin, H. M.; McDonnell, T. J.; Medeiros, L. J.; Rassidakis, G. Z.; Leventaki, V.; O'Connor, S. L.; Keating, M. J.; Lai, R. Characterization of 4 mantle cell lymphoma cell lines—Establishment of an in vitro study model. Arch. Pathol. Lab.
Cells were allowed to adhere overnight. […] 10 μL of the dilution were then transferred to the cell culture plate, resulting in a final concentration range of 10 μM to 2 nM. The incubation was carried out at 37° C. with 5% CO2. All compounds were tested in triplicates at each concentration. […] The plates were placed at 4° C. with vigorous shaking for 5 min to lyse the cells. The resulting lysates contained approximately 1 μg/μL of protein.
Plates were incubated overnight at 4° C. with rocking. […] After shaking for 10 minutes, the Superblock solution was replaced with fresh Superblock and plates were incubated on a shaker for an additional 50 min. After blocking, 30 μL of JeKo-1 cell lysate, containing approximately 10 μg total protein, were added to wells in triplicate. […] For all incubation steps, plates were covered with Uniseal plate sealers. […] Next, 50 μL of a 1:2500 dilution of donkey-anti-rabbit HRP (Promega catalog no. W401B) in PBS/10% Superblock were added, and plates were incubated for 30 min at room temperature on a shaker. Plates were again washed as described above. […] After incubation, 50 μL 2 M sulfuric acid were added to plates to top the reaction, and absorbance was determined on a SpectraMax (Molecular Devices, Sunnydale, Calif.) within 15 minutes at 450 nm. All washes were performed using a Bio-Tek plate washer.
The Total Rb ELISA kit (Invitrogen catalog no. KH00011) was used to determine the levels of total pRb. This kit uses wells precoated with a proprietary total pRb antibody for capture. All reagents listed, with the exception of cell lysate, were included in the kit. The nature of the antibodies used for capture and detection was labeled as proprietary and not disclosed. 10 μg of cell lysate was loaded into the wells and volume adjusted to 50 μL with standard dilution buffer. Plates were sealed with film included in the kit and incubated for 2 h at room temperature on a shaker. Plates are then manually washed three times with 250 μL wash buffer. 50 μL of proprietary primary antibody (pre-conjugated to biotin) was added to wells and incubated for 1 h at room temperature on a shaker. Then plates were again washed as noted above. The secondary antibody (HRP pre-conjugated to Streptavidin) was diluted 1:100 in Streptavidin-HRP diluent buffer and 50 μL was added to each well. Plates were then incubated for 30 min. Afterwards, plates were washed four times with buffer as outlined above. Finally, 50 μL stabilized Chromogen was added per well and plates were incubated for 15 min, at which point 50 μL of stop solution was added. Plates were then read on a Spectramax at 450 nm.
The total pRb levels were then used to adjust the p-pRb % inhibition values to account for any loss of signal due to the absence of the pRb protein itself, and the IC50 values obtained from the adjusted % inhibitions represent normalized cellular p-pRb IC50.
(An ELISA detects its analyte on a solid surface through an enzyme-linked reagent.)

The mark [2] stands for this setting: JeKo-1 cells, p-pRb % inhibition adjusted with total pRb levels, read-out: Normalized cellular ppRb inhibition IC50.
The mark [3] stands for this setting: JeKo-1 cells, p-pRb Ser780 ELISA, non-normalized, read-out: Cellular ppRb inhibition IC50.
The mark [4] stands for this setting: Homo sapiens, JeKo-1 cells, p-pRb % inhibition adjusted with total pRb levels, read-out: Normalized cellular ppRb inhibition IC50.
Where [5] appears, read: Homo sapiens, JeKo-1 cells, p-pRb Ser780 ELISA, non-normalized, read-out: Cellular ppRb inhibition IC50.
Where [6] appears, read: Homo sapiens, JeKo-1, JeKo-1 cells, p-pRb % inhibition adjusted with total pRb levels, read-out: Normalized cellular ppRb inhibition IC50.
Setting [7] is: Homo sapiens, JeKo-1, JeKo-1 cells, p-pRb Ser780 ELISA, non-normalized, read-out: Cellular ppRb inhibition IC50.

Experimental findings from patent US8957074B2 (Novartis AG, priority 2010, dated 2015) are described below.

Where two headings read alike, the source gives them in different places.

CDK4/cyclin D1, sequence (P11802 whole entry): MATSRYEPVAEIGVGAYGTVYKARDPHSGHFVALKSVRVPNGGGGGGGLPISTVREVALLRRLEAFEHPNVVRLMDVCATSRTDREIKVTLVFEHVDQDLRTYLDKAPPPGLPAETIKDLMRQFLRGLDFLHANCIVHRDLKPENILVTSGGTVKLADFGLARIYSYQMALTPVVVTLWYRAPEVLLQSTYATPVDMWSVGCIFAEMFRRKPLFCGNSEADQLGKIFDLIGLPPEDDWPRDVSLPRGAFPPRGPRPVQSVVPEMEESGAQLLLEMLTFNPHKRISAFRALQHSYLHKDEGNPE
CDK4/cyclin D1, sequence (P24385 whole entry partner): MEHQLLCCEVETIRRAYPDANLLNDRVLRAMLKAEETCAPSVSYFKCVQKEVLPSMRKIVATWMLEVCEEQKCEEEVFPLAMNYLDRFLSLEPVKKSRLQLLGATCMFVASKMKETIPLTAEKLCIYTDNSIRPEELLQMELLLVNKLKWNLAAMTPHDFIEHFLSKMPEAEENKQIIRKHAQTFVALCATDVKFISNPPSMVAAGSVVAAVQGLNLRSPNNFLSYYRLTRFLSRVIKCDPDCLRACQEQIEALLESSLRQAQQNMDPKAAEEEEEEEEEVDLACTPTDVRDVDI
CDK1/cyclin B, sequence (P06493 whole entry, species assumed): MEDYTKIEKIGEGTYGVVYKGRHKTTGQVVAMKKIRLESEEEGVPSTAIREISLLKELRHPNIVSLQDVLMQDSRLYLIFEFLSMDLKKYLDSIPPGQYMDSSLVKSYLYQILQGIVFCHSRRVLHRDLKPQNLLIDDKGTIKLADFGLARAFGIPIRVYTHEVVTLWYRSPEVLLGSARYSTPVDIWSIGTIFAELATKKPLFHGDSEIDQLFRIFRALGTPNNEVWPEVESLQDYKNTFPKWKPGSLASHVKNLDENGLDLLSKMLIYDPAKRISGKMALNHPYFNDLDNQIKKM
CDK1/cyclin B, sequence (P14635 whole entry partner, species assumed): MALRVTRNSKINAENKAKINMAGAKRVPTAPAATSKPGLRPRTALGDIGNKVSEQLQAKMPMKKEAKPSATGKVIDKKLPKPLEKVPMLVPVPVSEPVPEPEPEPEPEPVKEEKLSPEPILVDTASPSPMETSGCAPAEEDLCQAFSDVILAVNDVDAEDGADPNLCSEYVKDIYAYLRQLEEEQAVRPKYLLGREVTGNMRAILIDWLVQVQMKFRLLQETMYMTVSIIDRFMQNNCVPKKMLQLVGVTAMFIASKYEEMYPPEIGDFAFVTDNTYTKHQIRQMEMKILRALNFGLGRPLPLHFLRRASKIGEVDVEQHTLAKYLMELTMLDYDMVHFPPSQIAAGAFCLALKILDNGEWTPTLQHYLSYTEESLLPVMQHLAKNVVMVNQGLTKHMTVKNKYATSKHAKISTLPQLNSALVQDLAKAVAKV

Usually IC50 stands for the point on the concentration scale where inhibition reaches its midpoint. As for `CN(C)C(=O)c1cc2cnc(Nc3ccc(N4CCC5(CCNCC5)C4=O)cn3)nc2n1C1CCCC1` [Example 117, 7-cyclopentyl-N,N-dimethyl-2-(5-(1-oxo-2,8-diazaspiro[4.5]decan-2-yl)pyridin-2-ylamino)-7H-pyrrolo[2,3-d]pyrimidine-6-carboxamide], the half-inhibitory concentration (IC50) was > 15000 nM at CDK1/cyclin B ([…] CDK1/cyclin B), 7 to 9 nM on CDK4/cyclin D1, 51 to 82 nM in experiment [1] (setting [2]) and 40 to 67 nM in experiment [1] (setting [3]).
For the molecule `CN(C)C(=O)c1cc2cnc(Nc3ccc(C(=O)N4CC5CC4CN5)cn3)nc2n1C1CCCCC1` (centres unmarked) [Example 67, 7-Cyclohexyl-2-[5-(2,5-diaza-bicyclo[2.2.1]heptane-2-carbonyl)-pyridin-2-ylamino]-7H-pyrrolo[2,3-d]pyrimidine-6-carboxylic acid dimethylamide], the IC50 on CDK1/cyclin B ([…] CDK1/cyclin B) was 10400 nM; on CDK4/cyclin D1 it was 3 nM; in experiment [1] (setting [4]) it was 54 nM; in experiment [1] (setting [5]), 51 nM.
With `CN(C)C(=O)c1cc2cnc(Nc3ccc(C(=O)N4CC5(CNC5)C4)cn3)nc2n1C1CCCC1` [Example 41, 2-(5-(2,6-diazaspiro[3.3]heptane-2-carbonyl)pyridin-2-ylamino)-7-cyclopentyl-N,N-dimethyl-7H-pyrrolo[2,3-d]pyrimidine-6-carboxamide], the IC50 at CDK1/cyclin B ([…] CDK1/cyclin B) is > 15000 nM; at CDK4/cyclin D1 it was 15 to 17 nM; in experiment [1] (setting [4]), 132 to 415 nM; in experiment [1] (setting [5]), 112 to 228 nM.
Turning to `CN(C)C(=O)c1cc2cnc(Nc3ccc(C(=O)N4CC5CN(Cc6ccccc6)CC(C4)O5)cn3)nc2n1C1CCCC1` [Example 46, 2-[5-(7-Benzyl-9-oxa-3,7-diaza-bicyclo[3.3.1]nonane-3-carbonyl)-pyridin-2-ylamino]-7-cyclopentyl-7H-pyrrolo[2,3-d]pyrimidine-6-carboxylic acid dimethylamide], the concentration for half-maximal inhibition (IC50) at CDK1/cyclin B ([…] CDK1/cyclin B) is > 15000 nM; on CDK4/cyclin D1, 100 nM; in experiment [1] (setting [6]), 730 nM; in experiment [1] (setting [7]) it was 724 nM.
On to `CN(C)C(=O)c1cc2cnc(Nc3ccc(N4CC5CCC(C4)N5)cn3)nc2n1C1CCCC1` [Example 112, 7-Cyclopentyl-2-[5-(3,8-diaza-bicyclo[3.2.1]oct-3-yl)pyridin-2-ylamino]-7H-pyrrolo[2,3-d]pyrimidine-6-carboxylic acid dimethylamide], for which the IC50 at CDK1/cyclin B ([…] CDK1/cyclin B) is > 15000 nM; at CDK4/cyclin D1 it was 11 to 34 nM; in experiment [1] (setting [4]), 231 nM; in experiment [1] (setting [5]), 92 nM.
Taken in the same sequence, the figures for `CC(C)N1C2CCC1CN(C(=O)c1ccc(Nc3ncc4cc(C(=O)N(C)C)n(C5CCCC5)c4n3)nc1)C2` [Example 29, 7-cyclopentyl-2-(5-(8-isopropyl-3,8-diazabicyclo[3.2.1]octane-3-carbonyl)pyridin-2-ylamino)-N,N-dimethyl-7H-pyrrolo[2,3-d]pyrimidine-6-carboxamide] were > 15000 nM, 14 to 17 nM, 20 to 48 nM and 24 to 34 nM.
Turning to `CN(C)C(=O)c1cc2cnc(Nc3ccc(N4C(=O)CN5CCC4CC5)cn3)nc2n1C1CCCC1` [Example 96, 7-cyclopentyl-N,N-dimethyl-2-(5-(3-oxo-1,4-diazabicyclo[3.2.2]nonan-4-yl)pyridin-2-ylamino)-7H-pyrrolo[2,3-d]pyrimidine-6-carboxamide], the IC50 at CDK1/cyclin B ([…] CDK1/cyclin B) is 10800 nM; at CDK4/cyclin D1, 15 to 28 nM; in experiment [1] (setting [2]), 73 to 107 nM; in experiment [1] (setting [3]), 31 to 39 nM.
With `CN1C[C@@H]2CN(c3ccc(Nc4ncc5cc(C(=O)N(C)C)n(C6CCCC6)c5n4)nc3)C(=O)[C@@H]2C1` (stereo in doubt) [Example 95, 7-cyclopentyl-N,N-dimethyl-2-(5-((3aR,6aS)-5-methyl-1-oxohexahydropyrrolo[3,4-c]pyrrol-2(1H)-yl)pyridin-2-ylamino)-7H-pyrrolo[2,3-d]pyrimidine-6-carboxamide], the concentration for half-maximal inhibition (IC50) at CDK1/cyclin B (0.25 nM CDK1/cyclin B) was 14000 to 14300 nM; at CDK4/cyclin D1, 7 nM; in experiment [1] (setting [6]), 21 to 65 nM; in experiment [1] (setting [7]), 4 to 20 nM.
